From patent US8124582B2, “Treatment of diabetes” (FibroGen, Inc., priority 2002, dated 2012)

Experiments:
adrenomedullin = assay: In vivo adrenomedullin mRNA expression (microarray); set-up: species or system Swiss Webster male mice; conditions: mice, heart, kidney, and lung
Description: (§1) To determine gene induction patterns over time, twenty four Swiss Webster male mice (30-32 g) were obtained from Simonsen, Inc. and treated by oral gavage with a 4 ml/kg volume of either 0.5% carboxymethyl cellulose (CMC; Sigma-Aldrich, St. Louis Mo.) (0 mg/kg/day) or […] compound B (25 mg/ml in 0.5% CMC) (100 mg/kg). At 4, 8, 16, 24, 48, or 72 hours after the final dose, animals were anesthetized with isoflurane. The mice were then sacrificed and tissue samples of kidney, liver, brain, lung, and heart were isolated and stored in RNALATER solution (Ambion) at −80° C.
For measurement of adrenomedullin mRNA expression, samples were prepared and were hybridized and analyzed as described above in Example 4.

[1] = tested on: PFK-P, PFK-L, enolase-1, GluT-1, lactate dehydrogenase-1, aldolase-1, hexokinase-1; assay: In vivo expression of genes encoding enzymes involved in glucose regulation (microarray, time course); set-up: species or system Swiss Webster male mice; conditions: mice, 100 mg/kg oral gavage
Description: as §1
RNA from tissues obtained from the experiments described above was isolated using the following protocol. A 50 mg section of each organ was diced, 875 μl of RLT buffer (RNEASY kit; Qiagen Inc., Valencia Calif.) was added, and the pieces were homogenized for about 20 seconds using a rotor-stator POLYTRON homogenizer (Kinematica, Inc., Cincinnati Ohio). […] The RNA was eluted into 80 μL of water and quantitated with RIBOGREEN reagent (Molecular Probes, Eugene Oreg.). […] The absorbance at 260 and 280 nm was measured to determine RNA purity and concentration.
Alternatively, tissue samples were diced and homogenized in TRIZOL reagent (Invitrogen Life Technologies, Carlsbad Calif.) using a rotor-stator POLYTRON homogenizer (Kinematica). […] The absorbance at 260 and 280 nm was measured to determine RNA purity and concentration. […]

HIF-1α = HIF-1α stabilization in cells, TRANSAM HIF-1 ELISA of nuclear fractions; type: cell-based, Human; conditions: epithelial cells (293A) and hepatocellular carcinoma (Hep3B); FIG. 12B
Description: Stabilization of HIFα using compounds and methods of the present invention was examined as follows. Human cells derived from adenovirus-transformed fetal kidney epithelium (293A), cervical epithelial adenocarcinoma (HeLa), hepatocellular carcinoma (Hep3B), squamous carcinoma (SSC-25), and lung fibroblast (HLF) (see, e.g., American Type Culture Collection, Manassas Va.; and Qbiogene, Carlsbad Calif.) were separately seeded into 100 mm culture dishes and grown at 37° C., 20% O2, 10% CO2 in media as follows: HeLa cells in Dulbecco's Modification of Eagle's Medium (DMEM), 2% fetal bovine serum (FBS); HLF cells in DMEM, 10%FBS; 293A cells in DMEM, 5%FBS; and Hep3B cells in Minimal Essential Medium (MEM), Earle's BSS (Mediatech Inc., Herndon Va.), 2 mM L-glutamine, 0.1 mM non-essential amino acids, 1 mM sodium pyruvate, 10% FBS. When cell layers reached confluence, the media was replaced with OPTI-MEM media (Invitrogen Life Technologies, Carlsbad Calif.) and cell layers were incubated for approximately 24 hours in 20% O2, 10% CO2 at 37° C. Compound of the invention (one of compounds B, F, G, and H) or DMSO (0.5 to 1%) was then added to existing medium, and incubation was continued overnight.
Alternatively, nuclear fractions were prepared using a Nuclear Extract kit (Active Motif, Carlsbad Calif.) and were analyzed for HIF-1α using a TRANSAM HIF-1 ELISA kit (Active Motif) according to the manufacturer's instructions.

[2] = Blood glucose levels after 14 days oral dosing; type: in vivo, male Sprague Dawley rats; conditions: rats, 20, 60, 100, or 200 mg/kg oral gavage once daily for 14 days, overnight fast, day 15; FIG. 4
Description: The effect of compound administration on blood glucose levels was examined as follows. Fifty male Sprague Dawley rats (6-7 weeks old) obtained from Simonsen, Inc. were dosed with 0.5% CMC (Sigma-Aldrich) or compound B at 20, 60, 100, or 200 mg/kg body weight by oral gavage once daily for 14 consecutive days. Animals were monitored for changes in body weight and signs of overt toxicity and mortality. […] One sample of approximately 1 ml was collected into tubes containing EDTA for hematological analysis, and a second sample of approximately 1 ml was collected into a tube with no anticoagulant for serum chemistry analysis. Blood sample analyses were performed by IDEXX (West Sacramento, Calif.).

SMILES: O=C(O)CNC(=O)c1nc(Cl)c2ccccc2c1O [compound B, [(1-Chloro4-hydroxy-isoquinoline-3-carbonyl)-amino]-acetic acid]
- expression of adrenomedullin (adrenomedullin; 100 mg/kg oral gavage, FIG. 10B): increased in various tissues
- time within which adrenomedullin mRNA levels returned to control levels (adrenomedullin; time course): 16 to 24 h
- expression of genes encoding enzymes involved in glucose regulation ([1]; kidney, liver, lung, 4-72 hours after dose, FIGS. 2A-2C): increased in a coordinated fashion
- time after which most mRNA levels returned to control levels ([1]; time course): 24 to 48 h
- HIFα stabilization and accumulation (ELISA) compared to vehicle-treated control cells (HIF-1α): stabilization and accumulation of HIFα
- blood glucose levels [2]: dose-dependent decrease
